# Molecular target: T1, USP25 (USP25-His6, Boston Biochem E-546) (Homo sapiens, UniProt Q9UHP3)
# T1 construct: His6; purchased Boston Biochem E-546
# T1 sequence (Q9UHP3 1-1055): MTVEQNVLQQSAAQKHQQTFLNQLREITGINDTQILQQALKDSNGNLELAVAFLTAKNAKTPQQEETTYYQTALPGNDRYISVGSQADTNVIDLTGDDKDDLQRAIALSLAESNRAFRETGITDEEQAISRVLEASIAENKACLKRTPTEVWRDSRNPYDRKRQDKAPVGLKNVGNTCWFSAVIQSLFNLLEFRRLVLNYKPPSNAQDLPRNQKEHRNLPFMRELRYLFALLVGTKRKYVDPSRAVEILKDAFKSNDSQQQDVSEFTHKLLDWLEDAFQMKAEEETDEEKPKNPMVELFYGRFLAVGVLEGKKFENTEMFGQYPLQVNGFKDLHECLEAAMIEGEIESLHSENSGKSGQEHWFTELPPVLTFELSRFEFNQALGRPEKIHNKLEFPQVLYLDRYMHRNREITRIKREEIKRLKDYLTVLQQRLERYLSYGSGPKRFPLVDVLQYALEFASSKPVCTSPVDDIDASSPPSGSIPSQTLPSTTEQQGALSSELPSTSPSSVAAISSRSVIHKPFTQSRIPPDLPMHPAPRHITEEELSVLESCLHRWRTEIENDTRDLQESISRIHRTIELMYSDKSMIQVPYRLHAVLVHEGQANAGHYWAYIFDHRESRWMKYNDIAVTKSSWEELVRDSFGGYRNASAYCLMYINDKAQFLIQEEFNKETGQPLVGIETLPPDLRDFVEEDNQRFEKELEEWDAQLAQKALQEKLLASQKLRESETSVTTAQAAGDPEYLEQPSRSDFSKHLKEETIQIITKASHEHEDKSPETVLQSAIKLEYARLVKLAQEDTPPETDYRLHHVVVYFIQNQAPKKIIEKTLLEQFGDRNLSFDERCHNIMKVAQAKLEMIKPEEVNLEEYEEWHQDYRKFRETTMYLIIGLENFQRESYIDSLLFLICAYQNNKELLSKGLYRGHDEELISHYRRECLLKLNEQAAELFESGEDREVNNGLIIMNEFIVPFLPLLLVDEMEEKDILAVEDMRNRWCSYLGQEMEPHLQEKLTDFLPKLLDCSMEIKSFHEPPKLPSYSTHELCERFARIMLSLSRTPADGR
# Assay: Ubiquitin-Rhodamine 110 Assay for USP25 Activity, Example A-2
# Assay type: biochemical
# Conditions: Ubiquitin-Rhodamine 110 assay, Example A-2; read-out: USP25 A-2 IC50 range
# Procedure, shortened: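 Cleavage of ubiquitin-rhodamine 110 (25 nM, well below Km) by His-tagged USP25 at 75 pM is measured fluorimetrically after 45 min at room temperature and acid quench. Inhibitors are preincubated with enzyme for 30 minutes. IC50 values come from four-parameter logistic curve fitting.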
row,SMILES,IC50 [nM]
1,"Cc1ccc2c(N)c(C(=O)N[C@H]3CCc4nc(N5C[C@@H](N)[C@@H](OC(C)C)C5)ccc4C3)sc2n1 [Example 322, 3-amino-N-[(6S)-2-[(3R,4S)-3-amino-4-(propan-2-yloxy)pyrrolidin-1-yl]-5,6,7,8-tetrahydroquinolin-6-yl]-6-methylthieno[2,3-b]pyridine-2-carboxamide]",> 2000
2,"CCO[C@H]1CN(c2ccc3c(c2)OC[C@H](NC(=O)c2sc4nc(C)cc(C)c4c2N)C3)C[C@H]1N [Example 324, 3-amino-N-[(3R)-7-[(3R,4S)-3-amino-4-ethoxypyrrolidin-1-yl]-3,4-dihydro-2H-1-benzopyran-3-yl]-4,6-dimethylthieno[2,3-b]pyridine-2-carboxamide]",200 to 2000
3,"CO[C@@]1(C)CN(c2ccc3c(n2)OC[C@H](NC(=O)c2sc4nc(C)ccc4c2N)C3)C[C@@H]1N [Example 325, 3-amino-N-[(3R)-7-[(3S,4S)-4-amino-3-methoxy-3-methylpyrrolidin-1-yl]-2H,3H,4H-pyrano[2,3-b]pyridin-3-yl]-6-methylthieno[2,3-b]pyridine-2-carboxamide]",> 2000
4,"CO[C@]1(C)CN(c2ccc3c(n2)OC[C@H](NC(=O)c2sc4nc(C)ccc4c2N)C3)C[C@H]1N [Example 326, 3-amino-N-[(3R)-7-[(3R,4R)-4-amino-3-methoxy-3-methylpyrrolidin-1-yl]-2H,3H,4H-pyrano[2,3-b]pyridin-3-yl]-6-methylthieno[2,3-b]pyridine-2-carboxamide]",> 2000
5,"COC[C@H]1CN(c2ccc3c(n2)CC[C@H](NC(=O)c2sc4nc(C)ccc4c2N)C3)C[C@@H]1N [Example 327, 3-amino-N-[(6S)-2-[(3R,4S)-3-amino-4-(methoxymethyl)pyrrolidin-1-yl]-5,6,7,8-tetrahydroquinolin-6-yl]-6-methylthieno[2,3-b]pyridine-2-carboxamide]",200 to 2000
6,"COC[C@@H]1CN(c2ccc3c(n2)CC[C@H](NC(=O)c2sc4nc(C)ccc4c2N)C3)C[C@H]1N [Example 328, 3-amino-N-[(6S)-2-[(3S,4R)-3-amino-4-(methoxymethyl)pyrrolidin-1-yl]-5,6,7,8-tetrahydroquinolin-6-yl]-6-methylthieno[2,3-b]pyridine-2-carboxamide]",> 2000
7,"Cc1ccc2c(N)c(C(=O)N[C@H]3CCc4nc(N5C[C@H]6NCCC(F)(F)[C@H]6C5)ccc4C3)sc2n1 [Example 329, N-[(6S)-2-[(4aS,7aS)-4,4-difluoro-octahydro-1H-pyrrolo[3,4-b]pyridin-6-yl]-5,6,7,8-tetrahydroquinolin-6-yl]-3-amino-6-methylthieno[2,3-b]pyridine-2-carboxamide]",200 to 2000
8,"Cc1ccc2c(N)c(C(=O)N[C@H]3CCc4nc(N5C[C@@H]6NCCC(F)(F)[C@@H]6C5)ccc4C3)sc2n1 [Example 330, N-[(6S)-2-[(4aR,7aR)-4,4-difluoro-octahydro-1H-pyrrolo[3,4-b]pyridin-6-yl]-5,6,7,8-tetrahydroquinolin-6-yl]-3-amino-6-methylthieno[2,3-b]pyridine-2-carboxamide]",> 2000
9,"CN[C@H]1CN(c2ccc3c(n2)CC[C@H](NC(=O)c2sc4nc(C)ccc4c2N)C3)C[C@@]1(C)O [Example 331, 3-amino-N-[(6S)-2-[(3R,4S)-3-hydroxy-3-methyl-4-(methylamino)pyrrolidin-1-yl]-5,6,7,8-tetrahydroquinolin-6-yl]-6-methylthieno[2,3-b]pyridine-2-carboxamide]",> 2000
10,"CN[C@@H]1CN(c2ccc3c(n2)CC[C@H](NC(=O)c2sc4nc(C)ccc4c2N)C3)C[C@]1(C)O [Example 332, 3-amino-N-[(6S)-2-[(3S,4R)-3-hydroxy-3-methyl-4-(methylamino)pyrrolidin-1-yl]-5,6,7,8-tetrahydroquinolin-6-yl]-6-methylthieno[2,3-b]pyridine-2-carboxamide]",> 2000
11,"CO[C@H]1CN(c2ccc3c(c2)OC[C@H](NC(=O)c2sc4nc(C)ccc4c2N)C3)[C@@H](C)[C@@H]1N [Example 333, 3-amino-N-[(3R)-7-[(2S,3S,4S)-3-amino-4-methoxy-2-methylpyrrolidin-1-yl]-3,4-dihydro-2H-1-benzopyran-3-yl]-6-methylthieno[2,3-b]pyridine-2-carboxamide]",50 to 200
12,"CO[C@H]1[C@H](N)CN(c2ccc3c(c2)OC[C@H](NC(=O)c2sc4nc(C)ccc4c2N)C3)[C@H]1C [Example 334, 3-amino-N-[(3R)-7-[(2S,3S,4R)-4-amino-3-methoxy-2-methylpyrrolidin-1-yl]-3,4-dihydro-2H-1-benzopyran-3-yl]-6-methylthieno[2,3-b]pyridine-2-carboxamide]",1 to 50
13,"CO[C@@H]1CN(c2ccc3c(c2)OC[C@H](NC(=O)c2sc4nc(C)ccc4c2N)C3)[C@H](C)[C@H]1N [Example 335, 3-amino-N-[(3R)-7-[(2R,3R,4R)-3-amino-4-methoxy-2-methylpyrrolidin-1-yl]-3,4-dihydro-2H-1-benzopyran-3-yl]-6-methylthieno[2,3-b]pyridine-2-carboxamide]",200 to 2000
14,"CO[C@H]1[C@@H](C)N(c2ccc3c(c2)OC[C@H](NC(=O)c2sc4nc(C)ccc4c2N)C3)C[C@@H]1N [Example 336, 3-amino-N-[(3R)-7-[(2R,3R,4S)-4-amino-3-methoxy-2-methylpyrrolidin-1-yl]-3,4-dihydro-2H-1-benzopyran-3-yl]-6-methylthieno[2,3-b]pyridine-2-carboxamide]",200 to 2000
15,"Cc1ccc2c(N)c(C(=O)N[C@H]3COc4cc(N5CC6(C5)OCC[C@H]6N)ccc4C3)sc2n1 [Example 337, 3-amino-N-[(3R)-7-[(8R)-8-amino-5-oxa-2-azaspiro[3.4]octan-2-yl]-3,4-dihydro-2H-1-benzopyran-3-yl]-6-methylthieno[2,3-b]pyridine-2-carboxamide]",200 to 2000
16,"Cc1ccc2c(N)c(C(=O)N[C@H]3COc4cc(N5CC6(C5)OCC[C@@H]6N)ccc4C3)sc2n1 [Example 338, 3-amino-N-[(3R)-7-[(8S)-8-amino-5-oxa-2-azaspiro[3.4]octan-2-yl]-3,4-dihydro-2H-1-benzopyran-3-yl]-6-methylthieno[2,3-b]pyridine-2-carboxamide]",200 to 2000
17,"Cc1ccc2c(N)c(C(=O)N[C@H]3COc4cc(N5C[C@@H](N)[C@@]6(CCO6)C5)ccc4C3)sc2n1 [Example 339, 3-amino-N-[(3R)-7-[(4R,8R)-8-amino-1-oxa-6-azaspiro[3.4]octan-6-yl]-3,4-dihydro-2H-1-benzopyran-3-yl]-6-methylthieno[2,3-b]pyridine-2-carboxamide]",200 to 2000
18,"Cc1ccc2c(N)c(C(=O)N[C@H]3COc4cc(N5C[C@H](N)[C@]6(CCO6)C5)ccc4C3)sc2n1 [Example 340, 3-amino-N-[(3R)-7-[(4S,8S)-8-amino-1-oxa-6-azaspiro[3.4]octan-6-yl]-3,4-dihydro-2H-1-benzopyran-3-yl]-6-methylthieno[2,3-b]pyridine-2-carboxamide]",200 to 2000
19,"COC[C@@]1(C)CN(c2ccc3c(n2)CC[C@H](NC(=O)c2sc4nc(C)ccc4c2N)C3)C[C@@H]1N [Example 341, 3-amino-N-[(6S)-2-[(3S,4R)-4-amino-3-(methoxymethyl)-3-methylpyrrolidin-1-yl]-5,6,7,8-tetrahydroquinolin-6-yl]-6-methylthieno[2,3-b]pyridine-2-carboxamide]",200 to 2000
20,"COC[C@]1(C)CN(c2ccc3c(n2)CC[C@H](NC(=O)c2sc4nc(C)ccc4c2N)C3)C[C@@H]1N [Example 342, 3-amino-N-[(6S)-2-[(3R,4R)-4-amino-3-(methoxymethyl)-3-methylpyrrolidin-1-yl]-5,6,7,8-tetrahydroquinolin-6-yl]-6-methylthieno[2,3-b]pyridine-2-carboxamide]",200 to 2000
21,"COC[C@]1(C)CN(c2ccc3c(n2)CC[C@H](NC(=O)c2sc4nc(C)ccc4c2N)C3)C[C@H]1N [Example 344, 3-amino-N-[(6S)-2-[(3R,4S)-4-amino-3-(methoxymethyl)-3-methylpyrrolidin-1-yl]-5,6,7,8-tetrahydroquinolin-6-yl]-6-methylthieno[2,3-b]pyridine-2-carboxamide]",200 to 2000
